Experimental data published in patent publication US11884707B2, “Compositions for detection, inhibition and imaging of indoleamine 2, 3-dioxygenase 1 (IDO1) and methods of making and using same” (Regeneron Pharmaceuticals, Inc., priority 2016, dated 2024).
Values belong to the molecule of their own block, whether it stands above or below them. Where a SMILES comes first, the peptide text is derived from it. Bridges are numbered along the chain shown (N, C = ends). Triazole bridges read from a SMILES are 1,4-linked. [ ]: non-standard residue; d: D form. The star is where a group is joined. Biotinyl(3aR,4R,6aS) = O=C1N[C@@H]2[C@@H](CS[C@@H]2CCCCC(=O)*)N1; Biotin = O=C1N[C@H]2[C@H](CS[C@H]2CCCCC(=O)*)N1; Trp(1-Me) = Cn1cc(C[C@H](N)C(=O)O)c2ccccc21; Lys(N3) = [N-]=[N+]=NCCCC[C@H](N)C(=O)O; Phe(4-F) = N[C@@H](Cc1ccc(F)cc1)C(=O)O; AEEEA = NCCOCCOCCOCC(=O)O; Pra = C#CC[C@H](N)C(=O)O

Molecular target: T1, His-tagged IDO1 human recombinant protein (Homo sapiens, UniProt P14902)
T1 construct: purchased BPS Biosciences 71182
Assay: IDO1 ELISA (affinity assay), sandwich ELISA with immobilized biotinylated macrocycle
Type: binding
Conditions: for EC50: biotin-PEG3-modified macrocycle immobilized on NeutrAvidin plate (2 μM coating), His-tagged human IDO1 200 to 0 nM
Description: A black 96-well NeutrAvidin Coated High Binding Capacity plate (15510, Pierce) was coated with 2 μM biotinylated macrocyclic peptide ligand in TBS (25 mM Tris-HCl, 150 mM NaCl, pH 7.6) for 2 h at room temperature. The plate was aspirated and then washed with Wash Buffer (0.05% (v/v) Tween-20 in PBS, 6×). His-tagged IDO1 human recombinant protein (71182, BPS Biosciences) was serially diluted in Wash Buffer (from 200 to 0 nM) and incubated in the designated microwells for 1 h at room temperature. Microwells were aspirated and subsequently washed with Wash Buffer (11×). To detect the bound IDO1 protein, Alkaline Phosphatase (AP)-conjugated Anti-6×His Tag® antibody [HIS-1] (ab49746, Abcam) was prepared at 1:10,000 dilution and added to the microwells for 1 h at room temperature. The plate was aspirated and washed with Wash Buffer (5×). AttoPhos® AP Fluorescent Substrate System (S1000, Promega) was employed to develop the microwells. Using an excitation wavelength of 430 nm, fluorescent emission at 535 nm was recorded by Beckman Coulter DTX880 photometer. Titration curves were fit using a four-parameter regression curve fitting program to determine EC50 values.
The binding affinities of biotin-PEG3-modified macrocyclic peptide ligands were tested in an ELISA format. For these assays, a dilution series of His-tagged IDO1 human recombinant protein was captured using the macrocyclic peptide ligands immobilized on a NeutrAvidin-coated plate. […] The sequences of the peptide ligands are listed in Table 1, where D-amino acids are denoted in lowercase, Me-Trp=1-methyl-L-tryptophan, and F-Phe=4-fluoro-L-phenylalanine.
The D-alanine substituted, biotin-PEG3-modified macrocycles were tested in the IDO1 ELISA (Affinity assay). For these assays, a dilution series of His-tagged IDO1 human recombinant protein was captured using macrocycles immobilized on a NeutrAvidin-coated plate.

[1] = alanine scan and 3-mer/4-mer variants, biotin-PEG3-modified, FIGS. 15-18

T1 sequence (P14902 whole entry): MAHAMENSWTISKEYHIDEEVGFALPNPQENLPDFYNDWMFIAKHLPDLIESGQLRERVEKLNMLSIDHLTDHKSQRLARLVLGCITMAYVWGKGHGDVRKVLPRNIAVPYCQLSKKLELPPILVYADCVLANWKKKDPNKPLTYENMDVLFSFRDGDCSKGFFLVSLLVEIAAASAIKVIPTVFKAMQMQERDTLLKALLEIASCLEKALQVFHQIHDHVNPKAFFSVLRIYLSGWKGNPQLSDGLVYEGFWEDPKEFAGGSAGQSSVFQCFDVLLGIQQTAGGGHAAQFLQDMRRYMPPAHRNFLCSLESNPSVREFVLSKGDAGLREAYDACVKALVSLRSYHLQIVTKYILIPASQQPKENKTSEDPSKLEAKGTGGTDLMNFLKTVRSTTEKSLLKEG

- EC50: 125 nM
SMILES: CC(C)C[C@H]1NC(=O)[C@@H](Cc2ccc(O)cc2)NC(=O)[C@@H](Cc2ccccc2)NC(=O)[C@@H](Cc2ccccc2)NC(=O)[C@@H](CCCNC(=N)N)NC(=O)[C@@H](NC(=O)COCCOCCOCCNC(=O)CCCC[C@@H]2SC[C@@H]3NC(=O)N[C@@H]32)Cc2cn(nn2)CCCC[C@@H](C(N)=O)NC1=O [biotin-PEG3-Cy(rffyl)] ({Biotin-AEEEA}-[Pra][dR][dF][dF][dY][dL][Lys(N3)]-NH2; triazole 1-7)

- EC50: 124 nM
SMILES: Cn1cc(C[C@@H]2NC(=O)[C@@H](CCCNC(=N)N)NC(=O)[C@@H](Cc3ccccc3)NC(=O)[C@@H](CO)NC(=O)[C@@H](CC(N)=O)NC(=O)[C@@H](NC(=O)COCCOCCOCCNC(=O)CCCC[C@@H]3SC[C@@H]4NC(=O)N[C@@H]43)Cc3cn(nn3)CCCC[C@@H](C(N)=O)NC2=O)c2ccccc21 [biotin-PEG3-Cy(nsfr(Me-Trp))] ({Biotin-AEEEA}-[Pra][dN][dS][dF][dR][Trp(1-Me)][Lys(N3)]-NH2; triazole 1-7)

- EC50: 20 nM
SMILES: Cn1cc(C[C@@H]2NC(=O)[C@@H](Cc3ccccc3)NC(=O)[C@@H](CCCNC(=N)N)NC(=O)[C@@H](Cc3ccccc3)NC(=O)[C@@H](NC(=O)COCCOCCOCCNC(=O)CCCC[C@@H]3SC[C@@H]4NC(=O)N[C@@H]43)Cc3cn(nn3)CCCC[C@@H](C(N)=O)NC(=O)[C@@H](CO)NC2=O)c2ccccc21 [biotin-PEG3-Cy(frf(Me-Trp)s)] ({Biotin-AEEEA}-[Pra][dF][dR][dF][Trp(1-Me)][dS][Lys(N3)]-NH2; triazole 1-7)

- EC50: 25 nM
SMILES: C[C@H]1NC(=O)[C@@H](CCCNC(=N)N)NC(=O)[C@@H](Cc2ccc(O)cc2)NC(=O)[C@@H](Cc2c[nH]c3ccccc23)NC(=O)[C@@H](NC(=O)COCCOCCOCCNC(=O)CCCC[C@@H]2SC[C@@H]3NC(=O)N[C@@H]32)Cc2cn(nn2)CCCC[C@@H](C(N)=O)NC(=O)[C@@H](Cc2ccc(O)cc2)NC1=O [biotin-PEG3-Cy(wyray)] ({Biotin-AEEEA}-[Pra][dW][dY][dR][dA][dY][Lys(N3)]-NH2; triazole 1-7)

Second part, the molecule before the results:

SMILES: N=C(N)NCCC[C@H]1NC(=O)[C@@H](Cc2ccc(O)cc2)NC(=O)[C@@H](Cc2c[nH]c3ccccc23)NC(=O)[C@@H](NC(=O)COCCOCCOCCNC(=O)CCCC[C@H]2SC[C@H]3NC(=O)N[C@H]32)Cc2cn(nn2)CCCC[C@@H](C(N)=O)NC(=O)[C@@H](Cc2ccc(O)cc2)NC1=O [wyry, Biotin-PEG3-Cy(wyry)] ({Biotinyl(3aR,4R,6aS)-AEEEA}-[Pra][dW][dY][dR][dY][Lys(N3)]-NH2; triazole 1-6)
- Binding affinity to human IDO1 relative to parent macrocycle or sibling variants (in words) [1]: best affinity among the 4-mer macrocycles

SMILES: C[C@H]1NC(=O)[C@@H](Cc2ccccc2)NC(=O)[C@@H](CCCNC(=N)N)NC(=O)[C@@H](Cc2ccccc2)NC(=O)[C@@H](NC(=O)COCCOCCOCCNC(=O)CCCC[C@@H]2SC[C@@H]3NC(=O)N[C@@H]32)Cc2cn(nn2)CCCC[C@@H](C(N)=O)NC(=O)[C@@H](CO)NC1=O [frfas, Biotin-PEG3-Cy(frfas)] ({Biotin-AEEEA}-[Pra][dF][dR][dF][dA][dS][Lys(N3)]-NH2; triazole 1-7)
- Binding affinity to human IDO1 relative to parent macrocycle or sibling variants (in words) [1]: weakest binding to IDO1

SMILES: CC(C)C[C@H]1NC(=O)[C@@H](NC(=O)COCCOCCOCCNC(=O)CCCC[C@H]2SC[C@H]3NC(=O)N[C@H]32)Cc2cn(nn2)CCCC[C@@H](C(N)=O)NC(=O)[C@H](Cc2ccc(F)cc2)NC(=O)[C@H](Cc2cn(C)c3ccccc23)NC(=O)[C@@H](Cc2ccccc2)NC1=O [lf(Me-Trp)(F-Phe), Biotin-PEG3-Cy(lf(Me-Trp)(F-Phe))] ({Biotinyl(3aR,4R,6aS)-AEEEA}-[Pra][dL][dF][Trp(1-Me)][Phe(4-F)][Lys(N3)]-NH2; triazole 1-6)
- Binding affinity to human IDO1 relative to parent macrocycle or sibling variants (in words) [1]: slight decrease in binding affinity

SMILES: NC(=O)[C@@H]1CCCCn2cc(nn2)C[C@H](NC(=O)COCCOCCOCCNC(=O)CCCC[C@@H]2SC[C@@H]3NC(=O)N[C@@H]32)C(=O)N[C@H](CO)C(=O)N[C@H](Cc2c[nH]c3ccccc23)C(=O)N[C@H](Cc2c[nH]c3ccccc23)C(=O)N[C@@H](Cc2ccc(F)cc2)C(=O)N1 [sww(F-Phe), Biotin-PEG3-Cy(sww(F-Phe))] ({Biotin-AEEEA}-[Pra][dS][dW][dW][Phe(4-F)][Lys(N3)]-NH2; triazole 1-6)
- Maximum ELISA signal for human IDO1 binding (in words) [1]: superior to the other 4-mers generated
